Measurements as given in US5514687A, “Benzopyrido piperidylidene compounds, compositions, methods of manufacture and method of use” (Schering Corporation, priority 1993, dated 1996).

How the values were obtained:
[1] = system: PAF-induced platelet aggregation; experiment: Platelet Aggregation Assay (PAF antagonism, in vitro); type: cell-based; settings: human platelet-rich plasma, PAF 1-5×10^-8 M, 37° C.
Method: Platelet Aggregation Assay
Platelet-activating factor (PAF) causes aggregation of platelets by a receptor-mediated mechanism. Therefore, PAF-induced platelet aggregation provides a simple and convenient assay to screen compounds for PAF antagonism.
Human blood (50 mL) was collected from healthy male donors in an anticoagulant solution (5 mL) containing sodium citrate (3.8%) and dextrose (2%), Blood was centrifuged at 110×g for 15 min. and the supeernatant platelet-rich plasma (PRP) carefully transferred into a polypropylene tube. Platelet-poor-plasma (PPP) was prepared by centrifuging PRP at 12,000×g for 2 min. (Beckman Microfuge B). PRP was used within 3 hr. of drawing the blood.
PAF was dissolved In chloroform:methanol (1:1, v/v) at a concentration of 2 mg/mL and stored at -70° C. An aliquot of this solution was transferred to a polypropylene tube and dried under a flow of nitrogen gas. To the dried sample was added Hepes-e-BSA (BSA=bovine serum albumen) buffer (25 mM Hepes, pH 7.4, […], 0.7 mM MgCl2 and 0.1% BSA) to obtain a 1 mM solution and sonicated for 5 min. in a bath sonicator. This stock solution was further diluted to appropriate concentrations in Hepes-saline-BSA buffer. Collagen (Sigma) and adenosine diphosphate (ADP) (Sigma) were purchased as solutions. Test compounds were initially dissolved in dimethyl sulfoxide (DMSO) at a concentration of 50 mM and then further diluted in Hepes-saline-BSA buffer to achieve appropriate concentrations.
When an aggregating agen such as PAF is added to PRP, platelets aggregate. An aggregometer quantifies this aggreation by measuring and comparing light (infra-red) transmission through PPP and PRP. Aggregation assays were performed using a dual-channel aggregometer (Model 440, Chrono-Log Corp., Havertown, Pa.). PRP (0.45 mL) in aggregometer cuvettes was continually stirred (37° C.). Solution (50 μL) of test compounds or vehicle were added to the PRP and, after incubation for 2 min., 10-15 μl aliquots of PAF solution were added to achieve a final concentration of 1-5×10^-8 M. In different experiments the aggregatory response was kept within a set limit by varying the concentration of PAF. Incubations were continued until the increase in light transmission reached a maximum (usually 2 min.). This increase in lighyt transmission reflecting platlet aggregation is transmitted to a computer by the Chrono-Log model 810 AGGRO/LINK interface. The AGGRO/LINK calculates the slope of transmission change, thus providing the rate of aggregation. Values for inhibition were calculated by comparing rates of aggregation obtained in the absence and the presence of the compound. […]

PAF = experiment: PAF-induced bronchospasm in guinea pigs (in vivo, oral); set-up: species or system guinea pig; settings: PAF 0.4 μg/kg i.v.
Method: (§1) B. In Vivo Studies: Agonist-Induced Responses Spasmogen-Induced Bronchospasm in Guinea Pigs
(§2) Male Hartley guinea pigs (450-550 g) were obtained from Charles River Breeding Laboratories. The animals were fasted overnight and the following day were anesthetized with 0.9 mL/kg i.p. of dialurethane (containing 0.1 g/mL dialylbarbiturikc acid, 0.4 g/mL ethylurea and 0.4 g/mL urethane). The left jugular vein was cannulated for the administration of compounds. The trachea was cannulated and the animals were venticlated by a rodent respirator at 55 strokes/min. with a stroke volume of 4 mL. A side arm to the tracheal cannula was connected to a pressure transducer to obtain a continuous measure of inflation pressure. Bronchoconstriction was measured as the percent increase in inflation pressure that peaked within 5 min. after challenge with spasmogen. The animals were challenged i.v. with either histamine (10 ug/kg) or PAF (0.4 μg/kg in isotonic saline containing 0.25% BSA). Each animal was challenged with only a single spasmogen. The effect of a compound on the bronchospasm is expressed as a percent inhibition of the increase in inflation pressure compared to the increase in a control group.

Histamine = experiment: Histamine-induced bronchospasm in guinea pigs (in vivo, oral); set-up: species or system guinea pig; settings: histamine 10 ug/kg i.v.
Method: as §1, §2

[2] = oral 3 mg/kg, 2 hours after drug
[3] = oral 15 mg/kg, 8 hours after drug
[4] = oral 5 mg/kg, 8 hours after drug
[5] = oral 15 mg/kg, 16 hours after drug
[6] = oral 10 mg/kg, 6 hours after drug
[7] = oral 10 mg/kg, 16 hours after drug

| IC50 [1] | SMILES | Agonist Bronchospasm (in vivo)-Oral, PAF, Inhibition (PAF; [2]) | Agonist Bronchospasm (in vivo)-Oral, PAF, Inhibition (PAF; [3]) | Agonist Bronchospasm (in vivo)-Oral, Histamine, Inhibition (Histamine; [2]) | Agonist Bronchospasm (in vivo)-Oral, Histamine, Inhibition (Histamine; [3]) | Agonist Bronchospasm (in vivo)-Oral, PAF, Inhibition (PAF; oral 10 mg/kg, 2 hours after drug) | Agonist Bronchospasm (in vivo)-Oral, PAF, Inhibition (PAF; [4]) | Agonist Bronchospasm (in vivo)-Oral, PAF, Inhibition (PAF; [5]) | Agonist Bronchospasm (in vivo)-Oral, Histamine, Inhibition (Histamine; [4]) | Agonist Bronchospasm (in vivo)-Oral, Histamine, Inhibition (Histamine; [5]) | Agonist Bronchospasm (in vivo)-Oral, PAF, Inhibition (PAF; [6]) | Agonist Bronchospasm (in vivo)-Oral, PAF, Inhibition (PAF; [7]) | Agonist Bronchospasm (in vivo)-Oral, Histamine, Inhibition (Histamine; [6]) | Agonist Bronchospasm (in vivo)-Oral, Histamine, Inhibition (Histamine; [7]) |
| --- | --- | --- | --- | --- | --- | --- | --- | --- | --- | --- | --- | --- | --- | --- |
| 600 nM | CC(=O)N1CCC(=C2c3ccc(Cl)cc3CCc3cccnc32)CC1 [Compound No. 1] | 3% | 32% | 49% | 100% |  |  |  |  |  |  |  |  |  |
| 6000 nM | CC(=O)N1CCC(=C2c3ccc(Cl)cc3OCc3cccnc32)CC1 [Compound No. 2] |  |  |  |  | 27% |  |  |  |  |  |  |  |  |
| 200 nM | O=C(c1cc[n+]([O-])cc1)N1CCC(=C2c3ccc(Cl)cc3CCc3cccnc32)CC1 [Compound No. 3] | 93% |  | 37% |  |  | 12% | 13% | 33% | 64% |  |  |  |  |
| 400 nM | O=C(c1cc[n+]([O-])cc1)N1CCC(=C2c3ccc(Cl)cc3OCc3cccnc32)CC1 [Compound No. 4, 4-(8-Chloro-5,11-dihydro 1!benzoxepino 4,3-b!pyridin-11-ylidene)-1-(4-pyridinylcarbonyl)piperidine N^1-oxide] | 76% |  | 46% |  |  |  |  |  |  | 94% | 55% | 73% | 95% |
